In paper PMC4077824, “Conserved Prosegment Residues Stabilize a Late-Stage Folding Transition State of Pepsin Independently of Ground States” (PLoS ONE, 2014):
Entries after “also recorded” stand apart in the source; their conditions may differ. Where no end group is shown, it is not given here.

What was measured:
refolded pepsin (Rp) [1] = biological target: T1, refolded pepsin (Rp) (Sus scrofa, UniProt P00791); assay: PS-catalyzed folding of Rp to Np (recovery of Np activity); type: biochemical, porcine; conditions: for k f (PS-catalyzed folding rate constant): 1 µM Rp, 30 µM PS, pH 5.3 (20 mM acetic acid/NaOH, 100 mM NaCl), Np activity assayed at pH 1.2, 25°C with KPAEFF(NO2)AL, monoexponential fit, mean ± SD from non-linear curve fitting, 3-5 measurements; for k f (PS-catalyzed folding rate constant) / ΔΔG^‡ (change in folding activation energy upon mutation): 15°C; for ΔΔG^‡ (change in folding activation energy upon mutation): from k f, pH 5.3, relative to WT, ± SD by propagation of errors
T1 construct: Only the R13 and K36 side-chains of the PS form hydrogen bonds with the mature pepsin domain; purchased Sigma (St. Louis, MO, USA)
T1 sequence (P00791 60-385): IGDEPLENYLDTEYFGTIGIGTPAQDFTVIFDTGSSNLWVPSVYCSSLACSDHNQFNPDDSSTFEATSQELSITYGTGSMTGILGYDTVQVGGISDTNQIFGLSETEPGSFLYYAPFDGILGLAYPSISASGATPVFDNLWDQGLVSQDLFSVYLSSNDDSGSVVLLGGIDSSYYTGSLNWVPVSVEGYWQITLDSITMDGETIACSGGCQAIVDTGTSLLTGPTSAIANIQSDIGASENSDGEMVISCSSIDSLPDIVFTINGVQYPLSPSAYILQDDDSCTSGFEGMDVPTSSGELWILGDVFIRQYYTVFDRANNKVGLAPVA
Experimental: PS-catalyzed folding of Rp to Np
PS-catalyzed folding was carried out by combining 1 µM Rp and 30 µM PS, in a volume of 100 µl, at pH 5.3 (20 mM acetic acid/NaOH with 100 mM NaCl) and 15°C. Aliquots were taken at several time intervals, diluted 20-fold in 50 mM phosphoric acid buffer, pH 1.2, incubated for 5 min at 25°C and assayed for Np activity using the KPAEFF(NO2)AL substrate. The recovery of Np activity with time, t, was fit with a monoexponential function (y = a – bexp(–k f t)) to obtain the PS-catalyzed folding rate constant, k f. Under these conditions, PS binding to Rp reached equilibrium within the dead-time of mixing (<8 sec), as judged by Trp-fluorescence.
(§1) The change in stability of the folding transition state upon mutation was calculated using [drawing 3] (3) where k f, wt and k f, mut are the PS-catalyzed folding rate constants of the wild-type and mutant PS peptides. The change in equilibrium stability of PS-Np relative to PS-Rp upon mutation of the PS (ΔΔGPS(Np-Rp)) was determined as the difference between the changes in binding energies, using [drawing 4] (4) and [drawing 5] (5)
Temperature dependence of PS-catalyzed folding
PS-catalyzed folding could be measured only up to 15 °C for PSwt, as the reaction was too fast at higher temperatures. […] Given the linear temperature dependence it could be reasonably assumed that changes in activation energies (mutant – wild-type) would be unchanged from 15 °C to 20 °C, and so could be compared directly with changes in binding energies (wild-type – mutant) that were determined at 20 °C.

native pepsin (Np) = biological target: T2, native pepsin (Np) (Sus scrofa, UniProt P00791); assay: PS binding to Np (competitive inhibition of KPAEFF(NO2)AL hydrolysis); type: biochemical, porcine; conditions: for Ki: 10 nM Np, 20 mM acetic acid/NaOH pH 5.3, 100 mM NaCl, 5 min incubation, substrate KPAEFF(NO2)AL 0.1 mM, absorbance 300 nm, competitive model, mean ± SD from non-linear curve fitting, 3-5 measurements, read-out: K i (PS-Np inhibition constant); for Ki / ΔΔGPS-Np (change in PS-Np binding energy upon mutation): 20°C; for ΔΔGPS-Np (change in PS-Np binding energy upon mutation): from K i, pH 5.3, relative to WT, ± SD by propagation of errors; for effect on affinity for Np / PS-Np stability (in words): pH 5.3, 20°C, PS inhibition of Np, compared with PSwt
T2 construct: Only the R13 and K36 side-chains of the PS form hydrogen bonds with the mature pepsin domain; purchased Sigma (St. Louis, MO, USA)
T2 sequence (P00791 60-385): as above
Experimental: PS binding to Np was determined by using the PS as a competitive inhibitor and measuring the inhibition constant, K i. Hydrolysis of the KPAEFF(NO2)AL substrate was measured by following the decrease in absorbance at 300 nm using a Biochrom Ultrospec 3100pro UV-Vis spectrophotometer (Biochrom Ltd., Cambridge, England) in 20 mM acetic acid/NaOH buffer, pH 5.3, containing 100 mM NaCl. Np samples were diluted to 10 nM and incubated with PS for 5 min at 20°C and assayed for activity. The reaction rates were normalized to the activity in the absence of PS and the data fit using the competitive inhibitor form of the Michaelis-Menten equation [drawing 2] (2) where v0 is the initial reaction rate, V max is the maximum reaction rate, [S] is the substrate concentration (fixed at 0.1 mM), [I] is the inhibitor concentration, and K M is the Michaelis constant.
as §1
(§2) Here, ΔΔGbind refers to either ΔΔGPS-Rp, determined from K d values, or ΔΔGPS-Np, determined from K i values. The Φ-value for each mutant corresponds to eq 3 divided by eq 5. Additional details are included in the supporting information section (Text S1).

refolded pepsin (Rp) [2] = biological target: T1, refolded pepsin (Rp); assay: PS binding to Rp (Trp-fluorescence); set-up: species or system porcine; conditions: for Kd: 0.6-1.2 µM Rp, 20 mM acetic acid/NaOH pH 5.3 without added NaCl, ≥10 min, Trp-fluorescence ex 295 nm, em 315 nm, mean ± SD from non-linear curve fitting, 3-5 measurements, read-out: K d (PS-Rp dissociation constant); for Kd / ΔΔGPS-Rp (change in PS-Rp binding energy upon mutation): 20°C; for ΔΔGPS-Rp (change in PS-Rp binding energy upon mutation): from K d, pH 5.3, relative to WT, ± SD by propagation of errors; for effect on affinity for Rp / PS-Rp stability (in words): pH 5.3, 20°C, compared with PSwt
Experimental: The change in intrinsic tryptophan fluorescence of pepsin was used to measure the binding of PS to Rp and to determine the dissociation constant, K d. Rp solutions were diluted to between 0.6 and 1.2 µM in 20 mM acetic acid/NaOH buffer, pH 5.3, and mixed with various amounts of PS. After incubating the samples at 20°C for ≥10 minutes, the intrinsic tryptophan fluorescence was measured using a PTI spectrofluorophotometer (Photon Technology International, Inc., Birmingham NJ, USA), with excitation at 295 nm and emission measured at 315 nm. The change in fluorescence, ΔF i, at each PS concentration, [PS], was normalized relative to the maximum change, ΔF max, and fit according to [drawing 1] (1) where [Rp] is the total concentration of pepsin.
PS binding to Rp was measured in buffer without added 100 mM NaCl in order to obtain more accurate measurements of K d, owing to a larger change in signal in the absence of salt. Additionally, without added 100 mM NaCl it was possible to isolate the PS-Rp binding step from the catalyzed folding step thereby improving the determination of K d.
as §1, §2

k f (PS-catalyzed folding rate constant) (refolded pepsin (Rp) [1]) | Ki (native pepsin (Np)) | Kd (refolded pepsin (Rp) [2]) | ΔΔG^‡ (change in folding activation energy upon mutation) (refolded pepsin (Rp) [1]) | ΔΔGPS-Np (change in PS-Np binding energy upon mutation) (native pepsin (Np)) | ΔΔGPS-Rp (change in PS-Rp binding energy upon mutation) (refolded pepsin (Rp) [2]) | effect on rate of PS-catalyzed folding (in words) (refolded pepsin (Rp) [1]; pH 5.3, 15°C, compared with PSwt) | Sequence | effect on affinity for Np / PS-Np stability (in words) (native pepsin (Np)) | effect on affinity for Rp / PS-Rp stability (in words) (refolded pepsin (Rp) [2])
1.42 ± 0.34 min⁻¹ | 0.0648 ± 0.0114 µM | 0.31 ± 0.03 µM |  |  |  |  | LVKVPLVRKKSLRQNLIKNGKLKDFLKTHKHNPASKYFPEAAAL [WT] |  | 
0.27 ± 0.03 min⁻¹ | 0.0509 ± 0.0069 µM | 1.19 ± 0.23 µM | 0.94 ± 0.15 kcal/mol | -0.14 ± 0.13 kcal/mol | 0.79 ± 0.12 kcal/mol |  | LVKAPLVRKKSLRQNLIKNGKLKDFLKTHKHNPASKYFPEAAAL [V4A] | very small stabilizing effect on PS-Np; also recorded: stabilizing to the native state | relatively large destabilizing effect on PS-Rp
1.40 ± 0.26 min⁻¹ | 0.394 ± 0.0651 µM | 0.21 ± 0.09 µM | 0.01 ± 0.18 kcal/mol | 1.05 ± 0.14 kcal/mol | -0.21 ± 0.24 kcal/mol | no effect | LVKVPLVRKKSLRQNLAKNGKLKDFLKTHKHNPASKYFPEAAAL [I17A] | largest reduction in affinities for Np; also recorded: one of the most destabilizing mutations to the PS-Np complex | negligible effect on PS-Rp binding; also recorded: negligible effect on PS-Rp and PS-TS stability
